We go through 27 molecules from patent US20260356804A1, “SODIUM CHANNEL BLOCKING COMPOUNDS, DERIVATIVES THEREOF, AND METHODS OF THEIR USE” (LATIGO BIOTHERAPEUTICS, INC., priority 2022, published 2026).

The target in this experiment is T1, human Nav1.8/b3 (Homo sapiens, UniProt Q9Y5Y9).
T1 construct: expressed in transfected cells; host or cells: CHO
The experiment can be described thus: Compound Profiling Human NaV1.8/β3 Cell Line—SyncroPatch384PE Assay (automated patch clamp, stably transfected CHO cells). Format: cell-based. To be noted: Nav1.8/b3 CHO cells. Background: The patch-clamp technique gives a direct electrical read-out from membranes.

Setting [1] is: P1 (IC50, resting state block), P1 measurement, resting state block, holding potential −120 mV, third set of compounds.
Where [2] appears, read: P2 (IC50, inactivated state block), P2 measurement, inactivated state block, inactivation step −35 mV 10 sec, third set of compounds.
Where [3] appears, read: P1 (IC50, resting state block), P1 measurement, resting state block, holding potential −120 mV, first set of compounds.
Setting [4] is: P2 (IC50, inactivated state block), P2 measurement, inactivated state block, inactivation step −35 mV 10 sec, first set of compounds.
Where [5] appears, read: P1 (IC50, resting state block), P1 measurement, resting state block, holding potential −120 mV, fourth set of compounds.
[6] abbreviates: P2 (IC50, inactivated state block), P2 measurement, inactivated state block, inactivation step −35 mV 10 sec, fourth set of compounds.
Setting [7] is: P1 (IC50, resting state block), P1 measurement, resting state block, holding potential −120 mV, second set of compounds.
[8] abbreviates: P2 (IC50, inactivated state block), P2 measurement, inactivated state block, inactivation step −35 mV 10 sec, second set of compounds.
[9] abbreviates: P1 measurement, resting state block, holding potential −120 mV, third set of compounds, read-out: P1 (IC50, resting state block).
Setting [10] is: P2 measurement, inactivated state block, inactivation step −35 mV 10 sec, third set of compounds, read-out: P2 (IC50, inactivated state block).

The IC50 is the concentration that gives 50% inhibition.

The structures appear in SMILES notation. Like-named read-outs stand apart in the source and are kept apart here.

T1 sequence (Q9Y5Y9 whole entry): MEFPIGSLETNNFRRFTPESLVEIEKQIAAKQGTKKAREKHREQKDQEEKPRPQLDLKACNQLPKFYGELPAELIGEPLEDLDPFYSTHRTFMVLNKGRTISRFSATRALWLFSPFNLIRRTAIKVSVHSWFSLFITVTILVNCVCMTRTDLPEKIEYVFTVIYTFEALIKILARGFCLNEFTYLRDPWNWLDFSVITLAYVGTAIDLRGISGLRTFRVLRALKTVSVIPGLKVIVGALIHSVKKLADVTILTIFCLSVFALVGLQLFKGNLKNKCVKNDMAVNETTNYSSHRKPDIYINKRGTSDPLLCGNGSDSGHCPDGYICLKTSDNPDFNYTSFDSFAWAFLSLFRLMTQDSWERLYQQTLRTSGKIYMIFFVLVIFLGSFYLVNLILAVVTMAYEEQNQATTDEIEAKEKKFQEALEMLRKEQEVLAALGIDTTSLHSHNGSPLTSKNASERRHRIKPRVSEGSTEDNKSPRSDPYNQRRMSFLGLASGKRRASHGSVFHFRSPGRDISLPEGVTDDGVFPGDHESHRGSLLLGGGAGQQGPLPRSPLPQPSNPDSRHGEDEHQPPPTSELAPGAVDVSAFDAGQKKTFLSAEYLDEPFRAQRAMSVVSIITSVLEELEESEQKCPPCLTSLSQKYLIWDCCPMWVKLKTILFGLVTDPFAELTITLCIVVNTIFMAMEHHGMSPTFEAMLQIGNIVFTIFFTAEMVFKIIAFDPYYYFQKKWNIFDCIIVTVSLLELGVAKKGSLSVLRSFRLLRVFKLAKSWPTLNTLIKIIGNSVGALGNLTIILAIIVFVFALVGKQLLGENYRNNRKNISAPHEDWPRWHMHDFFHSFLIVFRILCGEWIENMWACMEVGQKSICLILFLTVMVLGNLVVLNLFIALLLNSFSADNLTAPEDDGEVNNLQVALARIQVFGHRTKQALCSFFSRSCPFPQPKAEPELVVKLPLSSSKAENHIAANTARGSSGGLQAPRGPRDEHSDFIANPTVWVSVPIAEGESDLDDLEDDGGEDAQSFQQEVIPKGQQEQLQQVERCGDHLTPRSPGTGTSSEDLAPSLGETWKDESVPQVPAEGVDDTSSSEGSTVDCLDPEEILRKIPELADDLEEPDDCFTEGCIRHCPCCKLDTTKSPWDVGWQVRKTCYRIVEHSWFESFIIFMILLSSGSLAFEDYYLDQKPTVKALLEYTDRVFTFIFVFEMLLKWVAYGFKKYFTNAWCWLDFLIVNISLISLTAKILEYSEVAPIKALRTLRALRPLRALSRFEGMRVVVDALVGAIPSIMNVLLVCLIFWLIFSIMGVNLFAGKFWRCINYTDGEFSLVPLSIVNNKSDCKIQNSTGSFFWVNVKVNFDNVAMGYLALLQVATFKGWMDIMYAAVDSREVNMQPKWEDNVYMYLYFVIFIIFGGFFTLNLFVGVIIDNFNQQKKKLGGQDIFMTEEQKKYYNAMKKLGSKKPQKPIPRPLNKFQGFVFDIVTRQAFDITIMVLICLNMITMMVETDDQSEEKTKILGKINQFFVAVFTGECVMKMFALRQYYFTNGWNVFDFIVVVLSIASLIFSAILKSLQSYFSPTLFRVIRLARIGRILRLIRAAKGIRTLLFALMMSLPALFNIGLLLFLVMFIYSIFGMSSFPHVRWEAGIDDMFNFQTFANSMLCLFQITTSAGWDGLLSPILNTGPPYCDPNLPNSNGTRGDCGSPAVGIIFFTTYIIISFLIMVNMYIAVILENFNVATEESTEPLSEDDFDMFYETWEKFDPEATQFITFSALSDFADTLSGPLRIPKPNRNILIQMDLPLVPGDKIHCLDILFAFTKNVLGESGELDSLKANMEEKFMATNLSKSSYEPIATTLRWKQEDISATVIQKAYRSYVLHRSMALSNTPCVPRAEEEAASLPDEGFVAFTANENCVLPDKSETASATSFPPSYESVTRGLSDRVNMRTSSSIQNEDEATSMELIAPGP
T1 sequence (Q9NY72 23-215 partner): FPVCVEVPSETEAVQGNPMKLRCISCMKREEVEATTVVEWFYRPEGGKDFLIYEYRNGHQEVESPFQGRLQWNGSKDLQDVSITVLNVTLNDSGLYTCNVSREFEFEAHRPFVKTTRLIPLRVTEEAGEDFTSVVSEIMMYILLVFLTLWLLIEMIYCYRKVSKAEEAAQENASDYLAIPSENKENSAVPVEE

`Cc1nc(F)ccc1Oc1ncc(C(F)(F)F)c(C)c1C(=O)Nc1cccc([S@@](C)(=O)=NCC(C)(C)N)c1` [Example 90C]: the half-maximal inhibitory concentration (IC50) under setting [1] is below 5 nM and the concentration for half-maximal inhibition (IC50) under setting [2] was below 5 nM.
In the case of `COc1c(Oc2cc(C(F)(F)F)nnc2C(=O)Nc2cccc([S+](C)[O-])c2)ccc(F)c1F` (stereo not drawn) [Example 30C, 4-(3,4-difluoro-2-methoxyphenoxy)-N-(3-(methylsulfinyl)phenyl)-6-(trifluoromethyl)pyridazine-3-carboxamide], the IC50 is above 200 nM under setting [1] and above 200 nM under setting [2].
For the molecule `Cc1nc(F)ccc1Oc1ncc(-c2ccc(C(F)F)cc2)c(C)c1C(=O)Nc1cccc([S@](C)(=N)=O)c1` [Example 2C, (R)-5-(4-(difluoromethyl)phenyl)-2-((6-fluoro-2-methylpyridin-3-yl)oxy)-4-methyl-N-(3-(S-methylsulfonimidoyl)phenyl)nicotinamide], the IC50 lay in the range of 5 to 50 nM under setting [1] and 5 to 50 nM under setting [2].
Consider `Cc1nc(F)ccc1Oc1cc(C(F)(F)F)c(Cl)cc1C(=O)Nc1cccc([S@](C)(=N)=O)c1` [Example 1A, (R)-5-chloro-2-((6-fluoro-2-methylpyridin-3-yl)oxy)-N-(3-(S-methylsulfonimidoyl)phenyl)-4-(trifluoromethyl)benzamide], for which the IC50 was below 5 nM under setting [3] and below 5 nM under setting [4].
`COc1cc(C#N)ccc1Oc1ncc(-c2ccc(C(F)F)cc2)c(C)c1C(=O)Nc1ccnc([S@](C)(=N)=O)c1` [Example 17C, (R)-2-(4-cyano-2-methoxyphenoxy)-5-(4-(difluoromethyl)phenyl)-4-methyl-N-(2-(S-methylsulfonimidoyl)pyridin-4-yl)nicotinamide] showed a half-inhibitory concentration (IC50) under setting [1] above 200 nM and a concentration for half-maximal inhibition (IC50) under setting [2] above 200 nM.
For `Cc1nc(F)ccc1Oc1ncc(C(F)(F)F)c(C)c1C(=O)Nc1cccc([S@@](C)(=O)=NC(=O)C2COC2)c1` [Example 6D, (R)-2-((6-fluoro-2-methylpyridin-3-yl)oxy)-4-methyl-N-(3-(S-methyl-N-(oxetane-3-carbonyl)sulfonimidoyl)phenyl)-5-(trifluoromethyl)nicotinamide], the IC50 was below 5 nM under setting [5] and below 5 nM under setting [6].
`Cc1nc(F)ccc1Oc1nc(C2CC2)c(C(F)(F)F)c(C)c1C(=O)Nc1ccnc([S@](C)(=N)=O)c1` [Example 106C]: the IC50 was below 5 nM under setting [1] and below 5 nM under setting [2].
Consider `Cc1nc(F)ccc1Oc1cc(C2CC2)c(C(F)(F)F)c(C)c1C(=O)Nc1ccnc([S@](C)(=N)=O)c1` [Example 39A], for which the IC50 was below 5 nM under setting [3] and below 5 nM under setting [4].
Consider `Cc1nc(F)ccc1Oc1cc(C2CC2)c(C(F)(F)F)cc1C(=O)Nc1cccc([S@](C)(=N)=O)c1` [Example 67A], for which the IC50 was below 5 nM under setting [3] and below 5 nM under setting [4].
For `Cc1nc(F)ccc1Oc1cc(C(F)(F)F)c(Cl)cc1C(=O)Nc1cccc([S@@](C)(=O)=NC(=O)CO)c1` [Example 2B, (R)-5-chloro-2-((6-fluoro-2-methylpyridin-3-yl)oxy)-N-(3-(N-(2-hydroxyacetyl)-S-methylsulfonimidoyl)phenyl)-4-(trifluoromethyl)benzamide], the half-inhibitory concentration (IC50) reads like this: under setting [7], below 5 nM; under setting [8], below 5 nM.
In turn, `Cc1nc(F)ccc1Oc1cc(C(F)(F)F)c(Cl)cc1C(=O)Nc1ccc(F)c([S+](C)[O-])c1` (stereo not drawn) [Example 69A] came in with an IC50 under setting [3] below 5 nM and a half-inhibitory concentration (IC50) under setting [4] below 5 nM.
As for `Cc1nc(F)ccc1Oc1cc(C2CC2)c(C(F)(F)F)c(C)c1C(=O)Nc1ccnc([S@@](C)(=N)=O)c1` [Example 38A], the 50% inhibitory concentration (IC50) was below 5 nM under setting [3] and below 5 nM under setting [4].
`COc1cc(C#N)ccc1Oc1ncc(-c2cnn(C)c2)c(C)c1C(=O)Nc1cccc([S@](C)(=N)=O)c1` [Example 1C, (R)-2-(4-cyano-2-methoxyphenoxy)-4-methyl-5-(1-methyl-1H-pyrazol-4-yl)-N-(3-(S-methylsulfonimidoyl)phenyl)nicotinamide] had a 50% inhibitory concentration (IC50) under setting [1] of 50 to 100 nM and an IC50 under setting [2] of 50 to 100 nM.
In the case of `Cc1nc(F)ccc1Oc1ncc(C(F)(F)F)c(C)c1C(=O)Nc1ccnc(C(N)=O)c1` [Example 120C], the half-inhibitory concentration (IC50) is, setting by setting: under setting [9], 5 to 50 nM; under setting [10], 5 to 50 nM.
`Cc1nc(F)ccc1Oc1cc(C(F)(F)F)c(Cl)c(F)c1C(=O)NC12CC(C(N)=O)(C1)C2` [Example 47A]: the concentration for half-maximal inhibition (IC50) runs as follows: under setting [3], above 200 nM; under setting [4], above 200 nM.
`COc1cc(C#N)ccc1Oc1ncc(C(F)(F)F)c(C)c1C(=O)Nc1cccc([S@](C)(=N)=O)c1` [Example 5C, (R)-2-(4-cyano-2-methoxyphenoxy)-4-methyl-N-(3-(S-methylsulfonimidoyl)phenyl)-5-(trifluoromethyl)nicotinamide] gave a half-inhibitory concentration (IC50) under setting [1] below 5 nM and a half-maximal inhibitory concentration (IC50) under setting [2] below 5 nM.
As for `Cc1nc(F)ccc1Oc1nc2ccccc2cc1C(=O)Nc1cccc([S@](C)(=N)=O)c1` [Example 97C], the IC50 reads like this: under setting [1], 50 to 100 nM; under setting [2], 50 to 100 nM.
Regarding `Cc1nc(F)ccc1Oc1nnc(C(F)(F)F)c(C)c1C(=O)Nc1cccc([S@@](C)(=O)=NC(=O)[C@@H](C)N)c1` [Example 21D, N-(3-((R)—N-(D-alanyl)-S-methylsulfonimidoyl)phenyl)-3-((6-fluoro-2-methylpyridin-3-yl)oxy)-5-methyl-6-(trifluoromethyl)pyridazine-4-carboxamide], the IC50 reads like this: under setting [5], below 5 nM; under setting [6], below 5 nM.
As to `COc1cc(C#N)ccc1Oc1ncc(Br)c(C)c1C(=O)Nc1cccc([S@](C)(=N)=O)c1` [Example 24C, (R)-5-bromo-2-(4-cyano-2-methoxyphenoxy)-4-methyl-N-(3-(S-methylsulfonimidoyl)phenyl)nicotinamide], the IC50 was below 5 nM under setting [1] and below 5 nM under setting [2].
Consider `Cc1nc(F)ccc1Oc1ncc(C(F)(F)F)c(C)c1C(=O)Nc1ccc(F)c([S+](C)[O-])c1` (stereo not drawn) [Example 102C], for which the IC50 was 5 to 50 nM under setting [1] and 5 to 50 nM under setting [2].
As to `Cc1nc(F)ccc1Oc1ncc(C(F)(F)F)c(C)c1C(=O)NC12CC(C(N)=O)(C1)C2` [Example 112C], the IC50 under setting [1] is above 200 nM and the concentration for half-maximal inhibition (IC50) under setting [2] is above 200 nM.
For `Cc1nc(F)ccc1Oc1ccc(C(F)(F)F)c(C)c1C(=O)Nc1cccc([S@@](C)(=O)=NC(=O)[C@@H](C)N)c1` [Example 24B], the 50% inhibitory concentration (IC50) by setting is: under setting [7], below 5 nM; under setting [8], below 5 nM.
As to `CNCC(=O)N=[S@](C)(=O)c1cccc(NC(=O)c2c(Oc3ccc(F)nc3C)ccc(C(F)(F)F)c2C)c1` [Example 25B], the IC50 is below 5 nM under setting [7] and below 5 nM under setting [8].
Regarding `COc1ccc(Oc2ncc(C(F)(F)F)c(C)c2C(=O)Nc2cccc([S@@](C)(=N)=O)c2)c(C)n1` [Example 116C], the 50% inhibitory concentration (IC50) under setting [1] was in the range of 5 to 50 nM and the IC50 under setting [2] lay in the range of 5 to 50 nM.
With `Cc1nc(F)ccc1Oc1cc(C(F)(F)F)c(Cl)c(F)c1C(=O)Nc1ccnc([S@](C)(=N)=O)c1` [Example 41A], the IC50 is below 5 nM under setting [3] and below 5 nM under setting [4].
Regarding `Cc1nc(F)ccc1Oc1cc(C(F)(F)F)c(Cl)c(F)c1C(=O)Nc1ccnc([S@@](C)(=N)=O)c1` [Example 34A], the 50% inhibitory concentration (IC50) runs as follows: under setting [3], below 5 nM; under setting [4], below 5 nM.
Take `COc1cc(C#N)ccc1Oc1ncc(-c2ccc(C)cn2)c(C)c1C(=O)Nc1cccc([S@](C)(=N)=O)c1` [Example 22C, (R)-6-(4-cyano-2-methoxyphenoxy)-4,5-dimethyl-N-(3-(S-methylsulfonimidoyl)phenyl)-[2,3-bipyridine]-5-carboxamide]: the 50% inhibitory concentration (IC50) by setting is: under setting [9], 50 to 100 nM; under setting [10], 50 to 100 nM.
